The values below come from patent US20240376151A1, “STAPLED PEPTIDES AND METHODS THEREOF” (FOG PHARMACEUTICALS, INC., priority 2022, published 2024).

Data set [1] has as its system Expi293 cells. In words: Measurement of the Cell Association of Helicons (mass spectrometry quantification in cells after treatment and wash). Type of data set: cell-based. The settings on record: percentage of Helicons in cells after treatment and wash, 22 hours, n = 2, mean ± SD. The procedure:
All samples were analyzed using mass spectrometry.

Data set [2] relates to Expi293 cells. In words: CellTiter-Glo cell health (ATP levels) during cell association assay. It is filed as cell-based. The conditions noted are these: reflective of cell health, luminescence Tfinal (22 hours) / Tinitial. In general terms: Cellular ATP, detected with luciferase, serves as a proxy for viable cell number.
Another data set addresses PD-L1 (Homo sapiens, UniProt Q9NZQ7).

Read-outs that look alike come from different tables or passages of the source. Peptide text beside a SMILES is read from it. * marks the point of attachment. 5FAM = O=C1OC2(c3ccc(O)cc3Oc3cc(O)ccc32)c2ccc(C(=O)*)cc21

Sequence of PD-L1 (Q9NZQ7 18-239): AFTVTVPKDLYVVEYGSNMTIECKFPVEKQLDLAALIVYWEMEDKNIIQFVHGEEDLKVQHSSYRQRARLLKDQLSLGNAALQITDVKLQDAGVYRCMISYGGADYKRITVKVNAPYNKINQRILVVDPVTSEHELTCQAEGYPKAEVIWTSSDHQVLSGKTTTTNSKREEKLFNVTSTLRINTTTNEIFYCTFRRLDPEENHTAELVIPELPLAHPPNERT

For `CCCC[C@H](NC(=O)[C@@H](NC(C)=O)C(C)C)C(=O)N[C@@H](CCC(=O)O)C(=O)N[C@]1(C)CCCCCCC=CCCC[C@@](C)(C(=O)N[C@@H](Cc2c[nH]cn2)C(=O)N[C@@H](Cc2ccc(O)cc2)C(=O)N[C@H](C(N)=O)C(C)C)NC(=O)[C@H]([C@@H](C)CC)NC(=O)[C@H](Cc2ccccc2)NC(=O)[C@H](C)NC(=O)[C@H](C)NC(=O)[C@H](CCC(=O)O)NC(=O)[C@H](Cc2ccc(O)cc2)NC1=O` (single isomer, unassigned) [FP07856, Ac-Val-nLeu-Glu-R8-Tyr-Glu-Ala-Ala-Phe-Ile-S5-His-Tyr-Val-NH2], the “Helicon in cells ± SD (%)” value in the data set on Expi293 cells [1] came to 15.5 ± 0.9%. In addition, in the data set with Expi293 cells [2], the “CellTiter-Glo fold change ± SD” value is on record as 1.3 ± 0.12.
For `CC(=O)N[C@@H](CC(C)C)C(=O)N[C@H](C(=O)N[C@@H](Cc1ccccc1)C(=O)N[C@]1(C)CCCCCCC=CCCC[C@@](C)(C(=O)N[C@@H](CO)C(=O)N[C@@H](C)C(=O)N[C@@H](C)C(N)=O)NC(=O)[C@H](CC2CCC2)NC(=O)[C@H](CCC(N)=O)NC(=O)[C@H](C)NC(=O)[C@H](Cc2c[nH]c3ccccc23)NC(=O)[C@H](Cc2ccc(O)cc2)NC(=O)[C@H](CCC(=O)O)NC1=O)[C@@H](C)O` [FP01413, Ac-Leu-Thr-Phe-R8-Glu-Tyr-Trp-Ala-Gln-Cba-S5-Ser-Ala-Ala-NH2, reference compound] the same measures were 3.7 ± 0.4% and 1.2 ± 0.07.
In the same order, the values of `CCCC[C@H](NC(=O)[C@@H](NC(C)=O)C(C)C)C(=O)N[C@@H](CCC(N)=O)C(=O)N[C@]1(C)CCCCCCC=CCCC[C@@](C)(C(=O)N[C@@H](Cc2c[nH]cn2)C(=O)N[C@@H](Cc2ccc(O)cc2)C(=O)N[C@H](C(N)=O)C(C)C)NC(=O)[C@H]([C@@H](C)CC)NC(=O)[C@H](Cc2ccccc2)NC(=O)[C@H](C)NC(=O)[C@H](C)NC(=O)[C@H](CCC(N)=O)NC(=O)[C@H](Cc2ccc(O)cc2)NC1=O` (single isomer, unassigned) [FP07872, Ac-Val-nLeu-Gln-R8-Tyr-Gln-Ala-Ala-Phe-Ile-S5-His-Tyr-Val-NH2] are 11.7 ± 1.6% and 1.1 ± 0.02.
`CCCC[C@H](NC(=O)[C@H](Cc1ccc(O)cc1)NC(=O)[C@H](CCC(N)=O)NC(=O)[C@]1(C)CCCC=CCCCCCC[C@@](C)(NC(=O)[C@H](CCC(=O)O)NC(=O)[C@H](CC(C)C)NC(=O)[C@@H](NC(C)=O)[C@@H](C)CC)C(=O)N[C@@H](Cc2ccc(O)cc2)C(=O)N[C@@H](CCC(=O)O)C(=O)N[C@@H](C)C(=O)N[C@@H](C)C(=O)N[C@@H](Cc2ccccc2)C(=O)N[C@@H](CCC(=O)O)C(=O)N1)C(N)=O` (single isomer, unassigned) [FP08017, Ac-Ile-Leu-Glu-R8-Tyr-Glu-Ala-Ala-Phe-Glu-S5-Gln-Tyr-nLeu-NH2]: the “Helicon in cells ± SD (%)” value in the data set on Expi293 cells [1] stood at 0.6 ± 0.1%. In addition, the “CellTiter-Glo fold change ± SD” value with Expi293 cells [2] is given as 1.2 ± 0.01.
Turning to `CCCC[C@H](NC(=O)[C@@H](NC(C)=O)C(C)C)C(=O)N[C@@H](CCC(=O)O)C(=O)N[C@]1(C)CCCCCCC=CCCC[C@@](C)(C(=O)N[C@@H](Cc2c[nH]cn2)C(=O)N[C@@H](Cc2ccc(O)cc2)C(=O)N[C@H](C(N)=O)C(C)C)NC(=O)[C@H]([C@@H](C)CC)NC(=O)[C@H](Cc2ccccc2)NC(=O)[C@H](C)NC(=O)[C@H](C)NC(=O)[C@H](CCC(=O)O)NC(=O)[C@H](Cc2ccc(O)cc2)NC1=O` (single isomer, unassigned) [FP07855, Ac-Val-nLeu-Glu-R8-Tyr-Glu-Ala-Ala-Phe-Ile-S5-His-Tyr-Val-NH2], in the data set on Expi293 cells [1], the “Helicon in cells ± SD (%)” value turned out to be 16.4 ± 0.6%. In addition, the “CellTiter-Glo fold change ± SD” value in the data set on Expi293 cells [2] is reported as 1.2 ± 0.10.
With `CC(C)C[C@H](NC(=O)[C@H](C)NC(=O)CNC(=O)[C@H](CCCCN)NC(=O)[C@H](CCCNC(=N)N)NC(=O)[C@H](C)NC(=O)[C@H](Cc1ccccc1)NC(=O)[C@H](CCCNC(=N)N)NC(=O)[C@H](CCC(N)=O)NC(=O)c1ccc2c(c1)C(=O)OC21c2ccc(O)cc2Oc2cc(O)ccc21)C(=O)N[C@@H](CCCNC(=N)N)C(=O)N[C@@H](CCC(N)=O)C(=O)N[C@@H](CCCCN)C(=O)N[C@@H](CC(N)=O)C(=O)N[C@H](C(N)=O)C(C)C` [FP47831, reference compound] (5FAM-QRFARKGALRQKNV-NH2), the “Helicon in cells ± SD (%)” value in the data set with Expi293 cells [1] was found to be 0.0 ± 0.0%. For the same compound, the “CellTiter-Glo fold change ± SD” value in the data set on Expi293 cells [2] is listed as 1.1 ± 0.02.
Consider `CC[C@H](C)[C@H](NC(C)=O)C(=O)N[C@@H](CC(C)C)C(=O)N[C@@H](CCC(N)=O)C(=O)N[C@]1(C)CCCCCCC=CCCC[C@@](C)(C(=O)N[C@@H](Cc2c[nH]cn2)C(=O)N[C@@H](Cc2ccc(O)cc2)C(=O)N[C@@H](CCC(N)=O)C(N)=O)NC(=O)[C@H](CO)NC(=O)[C@H](Cc2ccccc2)NC(=O)[C@H](C)NC(=O)[C@H](C)NC(=O)[C@H](CCC(=O)O)NC(=O)[C@H](Cc2ccc(O)cc2)NC1=O` (single isomer, unassigned) [FP07860, Ac-Ile-Leu-Gln-R8-Tyr-Glu-Ala-Ala-Phe-Ser-S5-His-Tyr-Gln-NH2], for which the “Helicon in cells ± SD (%)” value in the data set on Expi293 cells [1] was 0.3 ± 0.0%. Moreover, in the data set with Expi293 cells [2], the “CellTiter-Glo fold change ± SD” value is given as 1.2 ± 0.03.
On to `CC[C@H](C)[C@H](NC(=O)[C@H](Cc1ccc(O)cc1)NC(=O)[C@H](CCC(N)=O)NC(=O)[C@]1(C)CCCC=CCCCCCC[C@@](C)(NC(=O)[C@H](Cc2c[nH]cn2)NC(=O)[C@@H](NC(=O)[C@@H](NC(C)=O)[C@@H](C)CC)[C@@H](C)CC)C(=O)N[C@@H](Cc2ccc(O)cc2)C(=O)N[C@@H](CCC(=O)O)C(=O)N[C@@H](C)C(=O)N[C@@H](C)C(=O)N[C@@H](Cc2ccccc2)C(=O)N[C@@H](Cc2ccccc2)C(=O)N1)C(N)=O` (single isomer, unassigned) [FP08012, Ac-Ile-Ile-His-R8-Tyr-Glu-Ala-Ala-Phe-Phe-S5-Gln-Tyr-Ile-NH2], for which, in the data set with Expi293 cells [1], the “Helicon in cells ± SD (%)” value came to 5.4 ± 0.9%. Also, the “CellTiter-Glo fold change ± SD” value in the data set on Expi293 cells [2] was 1.1 ± 0.04.
In the same order, the values of `CCCC[C@H](NC(=O)[C@@H](NC(C)=O)C(C)C)C(=O)N[C@@H](CCC(N)=O)C(=O)N[C@]1(C)CCCCCCC=CCCC[C@@](C)(C(=O)N[C@@H](Cc2c[nH]cn2)C(=O)N[C@@H](Cc2ccc(O)cc2)C(=O)N[C@H](C(N)=O)C(C)C)NC(=O)[C@H]([C@@H](C)CC)NC(=O)[C@H](Cc2ccccc2)NC(=O)[C@H](C)NC(=O)[C@H](C)NC(=O)[C@H](CCC(=O)O)NC(=O)[C@H](Cc2ccc(O)cc2)NC1=O` (single isomer, unassigned) [FP07863, Ac-Val-nLeu-Gln-R8-Tyr-Glu-Ala-Ala-Phe-Ile-S5-His-Tyr-Val-NH2] are 23.5 ± 6.5% and 1.2 ± 0.02.
In the same order, the values of `CCCC[C@H](NC(=O)[C@H](Cc1ccc(O)cc1)NC(=O)[C@H](CCC(N)=O)NC(=O)[C@]1(C)CCCC=CCCCCCC[C@@](C)(NC(=O)[C@H](CCC(=O)O)NC(=O)[C@H](CC(C)C)NC(=O)[C@@H](NC(C)=O)[C@@H](C)CC)C(=O)N[C@@H](Cc2ccc(O)cc2)C(=O)N[C@@H](CCC(=O)O)C(=O)N[C@@H](C)C(=O)N[C@@H](C)C(=O)N[C@@H](Cc2ccccc2)C(=O)N[C@@H](CCC(=O)O)C(=O)N1)C(N)=O` (single isomer, unassigned) [FP08018, Ac-Ile-Leu-Glu-R8-Tyr-Glu-Ala-Ala-Phe-Glu-S5-Gln-Tyr-nLeu-NH2] are 1.0 ± 0.1% and 1.1 ± 0.05.
In the case of `CCCC[C@H](NC(=O)[C@@H](NC(C)=O)C(C)C)C(=O)N[C@@H](CCC(=O)O)C(=O)N[C@]1(C)CCCCCCC=CCCC[C@@](C)(C(=O)N[C@@H](Cc2c[nH]cn2)C(=O)N[C@@H](Cc2ccc(O)cc2)C(=O)N[C@H](C(N)=O)C(C)C)NC(=O)[C@H]([C@@H](C)CC)NC(=O)[C@H](Cc2ccccc2)NC(=O)[C@H](C)NC(=O)[C@H](C)NC(=O)[C@H](CCC(N)=O)NC(=O)[C@H](Cc2ccc(O)cc2)NC1=O` (single isomer, unassigned) [FP07867, Ac-Val-nLeu-Glu-R8-Tyr-Gln-Ala-Ala-Phe-Ile-S5-His-Tyr-Val-NH2], the “Helicon in cells ± SD (%)” value in the data set with Expi293 cells [1] came to 8.6 ± 0.4%. The “CellTiter-Glo fold change ± SD” value in the data set with Expi293 cells [2] was determined as 1.2 ± 0.03.
For the compound DPAAADCQWAAFLCRVY, on PD-L1 (PD-L1, target concentration 10), the “phage screen counts, Target Concentration 10” value was determined as 0. For the same compound, the “phage screen counts, Target Concentration 30” value at PD-L1 (PD-L1, target concentration 30) is reported as 0. The “phage screen counts, Target Concentration 100” value on PD-L1 (PD-L1, target concentration 100) is listed as 12. The “phage screen counts, Target Concentration 300” value at PD-L1 (PD-L1, target concentration 300) was 47. The “phage screen counts, Target Concentration 1000” value is recorded as 60 on PD-L1 (PD-L1, target concentration 1000, first column) and 62 at PD-L1 (PD-L1, target concentration 1000, second column).
